# In patent US4522815A, “Anthracycline glycosides” (priority 1982, dated 1985):
# Like-named read-outs stand apart in the source and are kept apart here.
# Tests used:
# [1] = test system: HeLa cells; test: Colony inhibition test against HeLa cells in vitro (cloning efficiency), treatment for 24 hrs; assay type: cell-based; conditions: for IC50: HeLa colony inhibition; for activity at 0.0062 µg/mL: 6.2 ng/ml; for activity at 0.0125 µg/mL: 12.5 ng/ml; for activity at 0.025 µg/mL: 25 ng/ml
# [2] = test system: P388 leukemia cells sensitive to DX; test: Cytotoxicity on doxorubicin-sensitive P388 leukemia cells in vitro, 48 hrs exposure; assay type: cell-based, mice; conditions: Mus musculus, P388; dose giving 50% reduction of cell number vs untreated controls; 48 hrs; read-out: ID50 P388
# Source text: P388 and P388/DX leukemia cells were harvested from mice ascitic fluid and adapted to grow in suspension "in vitro".
# [3] = test system: P388 leukemia cells resistant to DX (P388/DX); test: Cytotoxicity on doxorubicin-resistant P388/DX leukemia cells in vitro, 48 hrs exposure; assay type: cell-based, mice
# Procedure: Compounds Ib and Id were studied "in vitro" on HeLa and P388 leukemia cells sensitive (P388) and resistant (P388/DX) to DX and […].
# Compound Ib was studied on P388/DX "in vitro".
# P388 and P388/DX leukemia cells were harvested from mice ascitic fluid and adapted to grow in suspension "in vitro". Cytotoxicity tests were carried out exposing the cells to various drug concentrations for 48 hrs; at the end of the exposure period, cells were counted with a coulter cell counter, and the ID50 (dose which gives 50% reduction of the cell number in comparison with untreated controls) was calculated.
# Effect on sensitive and doxorubicin-resistant P388
# ^a Dose giving 50% reduction of cell number in comparison with
# ^c P388 leukemia cells resistant to DX
# ^d Ratio between ID50 on P388/DX and ID50 on P388
# [4] = test system: ascitic P388 leukemia; test: Antitumor activity against ascitic P388 leukemia in CDF-1 mice, treatment i.p. on day 1; assay type: in vivo
# Procedure: (§1) The primary screening […] was carried out in CDF-1 mice bearing ascitic P388 leukemia (10^6 cells/mouse). Both IIa and IIc were suspended in 10%. Tween 80 and injected intraperitoneally.
# (§2) Results of the primary screening "in vivo" carried out in CDF-1 mice bearing P388 ascitic leukemia and treated i.p. the day after tumor transplantation, are reported in Table 5.
# (§3) Antitumor activity against ascitic P388 leukekemia.
# (§4) Treatment i.p. on day 1.
# (§5) ^a median survival time; % over untreated controls
# (§6) ^b long term survivors (≥ 60 days)
# (§7) ^c evaluated on the basis of autoptic findings on dead mice
# (§8) ^d data of two experiments (range)
# (§9) ^e date of three experiments (range)
# (§10) Antitumor activity of Ib and Id against ascitic P388
# as §4
# [5] = test system: Gross leukemia; test: Antitumor activity against i.v. transplanted Gross leukemia in C3H/Me mice, treatment i.v. on day 1; assay type: in vivo; conditions: Table 6
# Source text: (§11) Results of studies performed in C3H/Me mice carrying i.v. transplanted Gross leukemia and treated i.v. the day after tumor transplantation, are reported in Table 6. […] The compounds Ib and Id were further investigated for oral activity on Gross leukemic transplanted i.v., in comparison with DNR, DX given i.v. and 4-dm DNR given oral route.
# Antitumor activity against i.v. Gross leukemia.
# Treatment i.v. on day 1.
# [6] = test system: Gross leukemia; test: Oral activity against i.v. transplanted Gross leukemia (i.v. comparators); assay type: in vivo, C3H/Me mice; conditions: Table 7
# Source text: as §11
# Oral activity of Ib and Id against Gross leukemia
# ^a days after transplantation
# as §8
# [7] = test system: Gross leukemia; conditions: already demonstrated; cited from earlier work
# [8] = Antitumor activity against ascitic P388 leukemia in CDF-1 mice, treatment i.p. on day 1; assay type: in vivo; conditions: mouse, in vivo, ip, CDF-1 mice; read-out: Maximal Tolerated Dose (Mx TD)
# Procedure: as §1, §2, §3, §4, §5, §6, §7, §8, §9, §10, §4
# [9] = Homo sapiens, HeLa, 24 h, read-out: No of colonies, % of untreated controls, Table 1, 24 hrs
# [10] = Homo sapiens, HeLa, 24 h, read-out: No of colonies, % of untreated controls, Table 3, 24 hrs
# [11] = Table 2, 4.4 mg/kg i.p. day 1, two experiments
# [12] = Table 2, 6.6 mg/kg i.p. day 1, two (DNR) or three (DX) experiments
# [13] = Table 5, 2.9 mg/kg i.p. day 1, two experiments
# [14] = Table 5, 4.4 mg/kg i.p. day 1, DNR: two experiments
# [15] = Homo sapiens, HeLa, 24 h, Table 3, 24 hrs, read-out: No of colonies, % of untreated controls
# [16] = Homo sapiens, HeLa, Table 1, 24 hrs, read-out: No of colonies, % of untreated controls
smiles,measurement,setting,value
"COc1cccc2c1C(=O)c1c(O)c3c(c(O)c1C2=O)C[C@@](O)(C(C)=O)C[C@@H]3O[C@H]1C[C@H](N)[C@H](O)[C@H](C)O1 [DNR, daunorubicin, reference compound]",IC50,"[1]; Homo sapiens, HeLa, 24 h, read-out: ID50, Table 1, 24 hrs",~0.016 µg/mL
same,IC50,"[1]; Homo sapiens, HeLa, 24 h, read-out: ID50, Table 3, 24 hrs",~0.012 µg/mL
same,activity at 0.0062 µg/mL,[1]; [9],106%
same,activity at 0.0125 µg/mL,[1]; [9],74%
same,activity at 0.025 µg/mL,[1]; [9],12%
same,activity at 0.0062 µg/mL,[1]; [10],83%
same,activity at 0.0125 µg/mL,[1]; [10],51%
same,activity at 0.025 µg/mL,[1]; [10],9%
same,IC50,[2],0.0017 µg/mL
same,IC50,"[3]; Mus musculus, P388/DX, dose giving 50% reduction of cell number vs untreated controls, 48 hrs, read-out: ID50 P388/DX",0.8 µg/mL
same,fold less active on the resistant than on the sensitive line,"[3]; P388/DX vs P388, 2880 min",about 500 fold
same,R: Ratio between ID50 on P388/DX and ID50 on P388,"[3]; Table 4, 2880 min",470
same,"LTS, long term survivors (≥ 60 days)","[4]; Table 2, 2.9 mg/kg i.p. day 1",0/10
same,"T/C, median survival time; % over untreated controls","[4]; Table 2, 2.9 mg/kg i.p. day 1",160%
same,Toxic deaths (autoptic findings on dead mice),"[4]; Table 2, 2.9 mg/kg i.p. day 1",0/10
same,"T/C, median survival time; % over untreated controls","[4]; Table 2, 4.4 mg/kg i.p. day 1, data of two experiments (range)",165-170%
same,"LTS, long term survivors (≥ 60 days)",[4]; [11],0/10
same,Toxic deaths (autoptic findings on dead mice),[4]; [11],0/20
same,"T/C, median survival time; % over untreated controls","[4]; Table 2, 6.6 mg/kg i.p. day 1, range of two (DNR) or three (DX) experiments",150-160%
same,"LTS, long term survivors (≥ 60 days)",[4]; [12],0/10
same,Toxic deaths (autoptic findings on dead mice),[4]; [12],7/20
same,"LTS, long term survivors (≥ 60 days)",[4]; [13],0/18
same,Toxic deaths (autoptic findings on dead mice),[4]; [13],0/8
same,"T/C, median survival time; % over untreated controls","[4]; Table 5, 2.9 mg/kg i.p. day 1, two experiments (range)",159-194%
same,"LTS, long term survivors (≥ 60 days)",[4]; [14],0/18
same,Toxic deaths (autoptic findings on dead mice),[4]; [14],7/18
same,"T/C, median survival time; % over untreated controls","[4]; Table 5, 4.4 mg/kg i.p. day 1, DNR: two experiments (range)",140-184%
same,"T/C, median survival time; % over untreated controls",[5]; 15 mg/kg i.v. day 1,171%
same,Toxic deaths,[5]; 15 mg/kg i.v. day 1,0/8
same,"T/C, median survival time; % over untreated controls",[5]; 22.5 mg/kg i.v. day 1,171%
same,Toxic deaths,[5]; 22.5 mg/kg i.v. day 1,0/8
same,"T/C %, median survival time","[6]; i.v. +1, 15 mg/kg",200%
same,Toxic deaths,"[6]; i.v. +1, 15 mg/kg",0/10
same,"T/C %, median survival time","[6]; i.v. +1, 22.5 mg/kg",125%
same,Toxic deaths,"[6]; i.v. +1, 22.5 mg/kg",6/10
"CC(=O)[C@]1(O)Cc2c(O)c3c(c(O)c2[C@@H](O[C@H]2C[C@H](N)[C@H](O)[C@H](C)O2)C1)C(=O)c1ccccc1C3=O [4-dm DNR, 4-demethoxy DNR, reference compound]",activity at 0.0031 µg/mL,"[1]; Homo sapiens, HeLa, 24 h, Table 3, 3.1 ng/ml, 24 hrs, read-out: No of colonies, % of untreated controls",84%
same,activity at 0.0062 µg/mL,[1]; [15],53%
same,activity at 0.0125 µg/mL,[1]; [15],18%
same,activity at 0.025 µg/mL,[1]; [15],0%
same,IC50,"[1]; Homo sapiens, HeLa, 24 h, Table 3, 24 hrs, read-out: ID50 (the source's name)",~0.0063 µg/mL
same,"LTS, long term survivors (≥ 60 days)","[4]; Table 5, 0.75 mg/kg i.p. day 1",0/8
same,"T/C, median survival time; % over untreated controls","[4]; Table 5, 0.75 mg/kg i.p. day 1",163%
same,Toxic deaths (autoptic findings on dead mice),"[4]; Table 5, 0.75 mg/kg i.p. day 1",0/8
same,"T/C %, median survival time","[6]; oral +1, 3 mg/kg",150%
same,Toxic deaths,"[6]; oral +1, 3 mg/kg",0/6
same,"T/C %, median survival time","[6]; oral +1, 3.6 mg/kg",150%
same,Toxic deaths,"[6]; oral +1, 3.6 mg/kg",0/6
same,"T/C %, median survival time","[6]; oral +1, 4.3 mg/kg",216%
same,Toxic deaths,"[6]; oral +1, 4.3 mg/kg",0/3
same,activity by oral route,[7],active by oral route
"COc1cccc2c1C(=O)c1c(O)c3c(c(O)c1C2=O)C[C@@](O)(C(C)=O)C[C@@H]3O[C@H]1C=C[C@@H](O)[C@H](C)O1 [Compound IIa, 7-0-(2,3,6-trideoxy-α-L-erythro-hex-2-enopyranosyl)-daunomycinone]",times less cytotoxic than DNR,"[1]; HeLa cells cloning efficiency, vs DNR",about 25 times
same,activity at 0.0015 µg/mL,"[1]; Homo sapiens, HeLa, Table 1, 1.5 ng/ml, 24 hrs, read-out: No of colonies, % of untreated controls",120%
same,activity at 0.0062 µg/mL,[1]; [16],127%
same,activity at 0.025 µg/mL,[1]; [16],143%
same,activity at 0.1 µg/mL,"[1]; Homo sapiens, HeLa, Table 1, 100 ng/ml, 24 hrs, read-out: No of colonies, % of untreated controls",136%
same,activity at 0.4 µg/mL,"[1]; Homo sapiens, HeLa, Table 1, 400 ng/ml, 24 hrs, read-out: No of colonies, % of untreated controls",146%
same,IC50,"[1]; Homo sapiens, Table 1, 24 hrs, read-out: ID50 (the source's name)",0.4 µg/mL
same,MTD,[8],100 mg/kg
same,"LTS, long term survivors (≥ 60 days)","[4]; Table 2, 75 mg/kg i.p. day 1",0/5
same,"T/C, median survival time; % over untreated controls","[4]; Table 2, 75 mg/kg i.p. day 1",120%
same,Toxic deaths (autoptic findings on dead mice),"[4]; Table 2, 75 mg/kg i.p. day 1",0/5
same,"LTS, long term survivors (≥ 60 days)","[4]; Table 2, 100 mg/kg i.p. day 1",0/10
same,"T/C, median survival time; % over untreated controls","[4]; Table 2, 100 mg/kg i.p. day 1",90%
same,Toxic deaths (autoptic findings on dead mice),"[4]; Table 2, 100 mg/kg i.p. day 1",1/10
same,toxicity and potency vs parent drugs DNR and DX,"[4]; ascitic P388, i.p.",less toxic and potent than the parent drugs DNR and DX
same,antitumor activity on P388 ascitic leukemia,"[4]; i.p. day 1, IIa: two doses tested incl. Mx TD",inactive
